From patent US9963453B2, “Substituted pyrazino[1,2-a]indoles as sigma receptor activity modulators” (LABORATORIOS DEL DR. ESTEVE S.A., priority 2013, dated 2018) come the findings set out here.

Usually Ki stands for a measure of affinity in units of concentration, obtained from inhibition or displacement. Read a high Ki as a looser hold on the target.

The structures appear in SMILES notation. Structures can show the parent of a compound that is named as a salt.

Sequence of human sigma 1 receptor (Q99720 whole entry): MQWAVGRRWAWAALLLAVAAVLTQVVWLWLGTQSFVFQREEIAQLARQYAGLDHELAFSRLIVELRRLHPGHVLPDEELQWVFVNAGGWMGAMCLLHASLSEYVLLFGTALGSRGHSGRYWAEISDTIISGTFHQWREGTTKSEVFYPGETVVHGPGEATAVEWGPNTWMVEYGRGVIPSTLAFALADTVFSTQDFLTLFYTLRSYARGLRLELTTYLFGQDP

The target in the experiment is human sigma 1 receptor (Homo sapiens (Human), UniProt Q99720). Nature of the experiment: Human Sigma 1 Receptor Radioligand Assay. In kind it is binding. Particulars: transfected HEK-293 membranes, 5 nM [3H](+)-pentazocine as radioligand, 37° C., 120 minutes. The procedure:
Human Sigma 1 Receptor Radioligand Assay
To investigate binding properties of sigma 1 receptor ligands to human sigma 1 receptor, transfected HEK-293 membranes and [^3H](+)-pentazocine (Perkin Elmer, NET-1056), as the radioligand, were used. The assay was carried out with 7 μg of membrane suspension, 5 nM of [^3H](+)-pentazocine in either absence or presence of either buffer or 10 μM Haloperidol for total and non-specific binding, respectively. Binding buffer contained Tris-HCl 50 mM at pH 8. Plates were incubated at 37° C. for 120 minutes. After the incubation period, the reaction mix was then transferred to MultiScreen HTS, FC plates (Millipore), filtered and plates were washed 3 times with ice-cold 10 mM TrisHCL (pH7.4). Filters were dried and counted at approximately 40% efficiency in a MicroBeta scintillation counter (Perkin-Elmer) using EcoScint liquid scintillation cocktail.
`CC(C(=O)N1CCn2c(cc3cc(F)ccc32)C1)N1CCN(C)CC1` (centres unmarked) [Example 26, 1-(8-fluoro-3,4-dihydropyrazino[1,2-a]indol-2(1H)-yl)-2-(4-methylpiperazin-1-yl)propan-1-one] displayed a Ki of 123 nM.
To `CN(C)CCCC(=O)N1CCN2c3ccccc3CC2C1` (centres unmarked) [Example 43, 4-(dimethylamino)-1-(3,4,10,10a-tetrahydropyrazino[1,2-a]indol-2(1H)-yl)butan-1-one] belongs 151 nM; to `O=C(CCCN1CCCCC1)N1CCn2c(cc3cc(F)ccc32)C1` [Example 16, 1-(8-fluoro-3,4-dihydropyrazino[1,2-a]indol-2(1H)-yl)-4-(piperidin-1-yl)butan-1-one], 22.2 nM; to `CC(C(=O)N1CCn2c(cc3ccccc32)C1)N1CCCCCC1` (centres unmarked) [Example 7, 2-(azepan-1-yl)-1-(3,4-dihydropyrazino[1,2-a]indol-2(1H)-yl)propan-1-one], 24.8 nM.
`C[C@@H](C(=O)N1CCn2c(cc3ccccc32)C1)N1CCN(C)CC1` [Example 19, (S)-1-(3,4-dihydropyrazino[1,2-a]indol-2(1H)-yl)-2-(4-methylpiperazin-1-yl)propan-1-one] displayed a Ki of 55.9 nM.
To `C[C@@H](CN1CCN(C)CC1)C(=O)N1CCn2c(cc3ccccc32)C1` [Example 48, (S)-1-(3,4-dihydropyrazino[1,2-a]indol-2(1H)-yl)-2-methyl-3-(4-methylpiperazin-1-yl)propan-1-one] belongs 142 nM; to `CC(CN1CCN(C)CC1)C(=O)N1CCn2c(cc3ccccc32)C1` (centres unmarked) [Example 41, 1-(3,4-dihydropyrazino[1,2-a]indol-2(1H)-yl)-2-methyl-3-(4-methylpiperazin-1-yl)propan-1-one], 73 nM.
Take `CC(C(=O)N1CCn2c(cc3cc(F)ccc32)C1)N1CCN(C2CCCCC2)CC1` (centres unmarked) [Example 27, 2-(4-cyclohexylpiperazin-1-yl)-1-(8-fluoro-3,4-dihydropyrazino[1,2-a]indol-2(1H)-yl)propan-1-one]: the Ki came out at 25.6 nM.
As for `C[C@H](C(=O)N1CCN2c3ccccc3C[C@H]2C1)N1CCN(C2CCCCC2)CC1` [Example 51, (R)-2-(4-cyclohexylpiperazin-1-yl)-1-((S)-3,4,10,10a-tetrahydropyrazino[1,2-a]indol-2(1H)-yl)propan-1-one], the Ki was 59.9 nM.
To `C[C@@H](C(=O)N1CCN2c3ccccc3C[C@@H]2C1)N1CCN(C)CC1` [Example 33, (S)-2-(4-methylpiperazin-1-yl)-1-((R)-3,4,10,10a-tetrahydropyrazino[1,2-a]indol-2(1H)-yl)propan-1-one] belongs 84.3 nM; to `C[C@H](C(=O)N1CCN2c3ccccc3C[C@H]2C1)N1CCN(C)CC1` [Example 32, (R)-2-(4-methylpiperazin-1-yl)-1-((S)-3,4,10,10a-tetrahydropyrazino[1,2-a]indol-2(1H)-yl)propan-1-one], 234 nM; to `O=C(CN1CCCCCC1)N1CCn2c(cc3cc(F)ccc32)C1` [Example 12, 2-(azepan-1-yl)-1-(8-fluoro-3,4-dihydropyrazino[1,2-a]indol-2(1H)-yl)ethanone], 14.6 nM.
`CN(C)CCCC(=O)N1CCn2c(cc3ccccc32)C1` [Example 11, 1-(3,4-dihydropyrazino[1,2-a]indol-2(1H)-yl)-4-(dimethylamino)butan-1-one]: the Ki came out at 60.8 nM.
To `CN1CCN(CCCC(=O)N2CCn3c(cc4ccccc43)C2)CC1` [Example 22, 1-(3,4-dihydropyrazino[1,2-a]indol-2(1H)-yl)-4-(4-methylpiperazin-1-yl)butan-1-one] belongs 292 nM; to `CC(C(=O)N1CCn2c(cc3ccccc32)C1)N1CCCCC1` (centres unmarked) [Example 9, 1-(3,4-dihydropyrazino[1,2-a]indol-2(1H)-yl)-2-(piperidin-1-yl)propan-1-one], 129 nM.
Consider `O=C(CN1CCCCCC1)N1CCn2c(cc3ccccc32)C1` [Example 4, 2-(azepan-1-yl)-1-(3,4-dihydropyrazino[1,2-a]indol-2(1H)-yl)ethanone hydrochloride], for which the Ki was found to be 10.2 nM.
To `C[C@@H](C(=O)N1CCN2c3ccccc3C[C@@H]2C1)N1CCN(C2CCCCC2)CC1` [Example 52, (S)-2-(4-cyclohexylpiperazin-1-yl)-1-((R)-3,4,10,10a-tetrahydropyrazino[1,2-a]indol-2(1H)-yl)propan-1-one] belongs 142 nM.
